# Key:
# primary CLL cells = assay: Viability of CLL cells under γ-secretase inhibition; type: cell-based, human; details: 100 nM γ-secretase inhibitor
# Experimental: Viability of CLL cells was not affected by the inhibitor (FIG. 8A). No difference in BCMA levels, before or after γ-secretase inhibitor treatment, was observed between CLL samples with mutated and unmutated immunoglobulin heavy chain variable region gene (IgHV) status (FIG. 2C-D). Low but measurable mRNA levels of BCMA expression could be detected on CLL cells (FIG. 2E). Despite low BCMA detection by flow cytometry, sBCMA could be detected in supernatants of CLL cells, already after 24 h of culturing, which increased after 48 h (FIG. 2F).
# Jurkat cells = assay: BCMA membrane level by flow cytometry after γ-secretase inhibition, Jurkat; type: cell-based; details: 100nM, 24-48 h
# Experimental: (§1) To evaluate whether other malignancies besides multiple myeloma (MM) can potentially be targeted by BCMA directed immunotherapy, B cell malignancy cell lines were assessed for BCMA expression by flow cytometry. […] Per FIG. 1A, B cell malignancy cell lines were cultured and basal levels of BCMA were assessed by flow cytometry and compared to isotype controls. (n=3-8). Dotted line indicates no increase compared to isotype control. In accordance with FIG. 1B, cell lines were treated for 24-48h with 100nM γ-secretase inhibitor or with medium control and BCMA was assessed by flow cytometry. Values are represented as fold increase compared to 0 nM γ-secretase inhibitor. (n=3-12) Dotted line indicates no increase compared to 0 nM γ-secretase inhibitor. FIG. 1C represents the results of an asssessment of soluble BCMA by ELISA in supernatants of B cell malignancy cell lines after treatment with 0 nM or 100 nM γ-secretase inhibitor for 24-48 h. (n=2). […] The P value was calculated by paired t test of Wilcoxon test (FIG. 1A-1B) or simple linear regression (FIG. 1E). […]
# (§2) Since BCMA is known to be cleaved off by γ-secretase, it was evaluated whether inhibition of this enzyme would lead to enhanced BCMA levels on these B cell lines. […]
# (§3) Flow cytometry. […] After antibody staining, samples were washed using PBA and acquired on BD FACS Canto or LSR Fortessa flow cytometer and analysed with FlowJo v10. […]
# [1] = tested on: B cell malignancy cell lines; assay: Soluble BCMA ELISA in supernatants of cell lines; type: cell-based; details: 100 nM, 24 or 48h, both time points
# Experimental: as §1, §2
# sBCMA ELISA. […] After 24 or 48 h supernatants were harvested and stored at −20° C. soluble BCMA (sBCMA) in supernatants were measured by ELISA using antibody pairs for BCMA.
# [2] = tested on: B cell malignancy cell lines; assay: BCMA membrane level by flow cytometry after γ-secretase inhibition; type: cell-based; details: 100nM, 24-48 h, all B cell malignancy cell lines
# Experimental: as §1, §2, §3
structure (smiles),measurement,setting,value
C[C@H](NC(=O)[C@@H](O)c1cc(F)cc(F)c1)C(=O)N[C@@H]1C(=O)N(C)c2ccccc2-c2ccccc21 [Ly411575],Viability of CLL cells,primary CLL cells,not affected
same,BCMA level after γ-secretase inhibition,Jurkat cells,no upregulation of BCMA
same,soluble BCMA (sBCMA) levels in supernatants,[1],strongly reduced
same,BCMA level after γ-secretase inhibition compared to unstimulated cells,[2],increased BCMA level
